Measurements published in patent US20160200762A1, “Bioactive polypeptide DELQ and preparation method as well as application thereof” (SHANGHAI JIAOTONG UNIVERSITY, priority 2012, published 2016).
Where a SMILES comes first, the peptide text is derived from it.

Legend:
[1] = simulated in vitro gastrointestinal digestion (pepsin, then pancreatin), UPLC-Q-TOF-MS analysis; format: in vitro ADME; conditions: 500 μg/mL; pepsin pH 2.0 37° C. 90 min, then pancreatin pH 7.5 37° C. 150 min
Procedure: The experiment is divided into two steps. Firstly, preparing a 500 μg/mL DELQ solution, adding pepsin with a ratio of 20 mg the pepsin for every gram of the DELQ, adjusting a pH value of the reaction solution to 2.0, reacting with a temperature kept in a 37° C. thermostatic waterbath for 90 min; then adjusting a pH value to 7.5, and adding pancreatin with a ratio of 40 mg the pancreatin for every gram of the DELQ, and reacting with a temperature kept in a 37° C. thermostatic waterbath for 150 min; inactivating disgestive enzymes with a 95° C. waterbath for 5 min; and freeze-drying the reaction solution for obtaining dry powder thereof, and storing at −20° C. for further use.
Picking 0.2 mg powder sample after stimulated in vitro gastrointestinal digestion, adding 50 μL water and 450 μL pure ethanol, thorough shocking before putting into a −20° C. freezer for 20 min, centrifuging at 15000 rpm for 30 min, collecting 400 μL supernatant for UPLC-Q-TOF-MS analysis. […]
According to the above experiment conditions, the bioactive polypeptides DELQ before and after treatment with digestive enzymes are analyzed by UPLC-Q-TOF-MS, a total ion stream obtained is shown in FIG. 11. […]

[2] = in vitro antioxidant activity detection with the [DPPH.] method (radical removing rate); format: biochemical
Procedure: (1) Preparing 1 mmol/L [DPPH.] Methanol Solution:
Weighting […] [DPPH.] with the analytical balance and dissolving in 1 ml methanol solution for obtaining 1 mmol/L [DPPF.] methanol solution, storing with tinfoil for avoiding light, wherein the [DPPF.] methanol solution is prepared before use.
(2) Standard Curve Detection of [DPPH.] Methanol Solution:
Adding 100 μL [DPPH.] methanol standard curve sample into the 96-hole cell culturing plate according to a Table 2, waiting for 90 min at a room temperature, detecting absorbance values at 517 nm with the microplate reader.
Accordingly, curves are fitted and a regression equation is calculated with Excel, and results thereof are shown in FIG. 8 (the regression equation: y=−0.192x+0.2271, R^2=0.9991). […] From the results, absorbance values and [DPPF.] contents have an inverse relationship, i.e. the less the [DPPH.] content is, the […] the absorbance value will be, which means a stronger radical removing ability.
(3) Antioxidant Activity Detection of the Bioactive Polypeptide DELQ with [DPPH.] Method […]
2) blank group: adding 80 μL 1 mmol/L [DPPF.] methanol solution and 20 μL deionized water into the same 96-hole cell culturing plate for forming a blank group.
After adding the test sample, waiting at the room temperature for 90 min, detecting the absorbance values at 517 nm with the microplate reader, and calculating a radical removing ratio according to a following formula, wherein results thereof are shown in Table 3.

[3] = total antioxidant capacity detection with the FRAP (Ferric Reducing Ability Power) method; format: biochemical; conditions: sample concentration 4.00 mg/mL
Procedure: (1) Preparing FRAP Working Fluid:
According to the FRAP detection reagent kit, thorough mixing 7.5 mL TPTZ diluent, 750 μL TPTZ solution, and 750 μL detection buffer, incubating in a 37° C. water bath, and using in 2 h.
(2) Drawing a FeSO4 Standard Curve:
Adding 180 μL FRAP working fluid into the 96-hole cell culturing plate, then adding 5 μL FeSO4 standard curve solution according to Table 4, gently mixing, incubating at 37° C. for 3-5 min, and detecting absorbance values at 593 nm with the microplate reader.
FeSO4 concentration and the absorbance value have a good proportional relationship, i.e. the higher the FeSO4 concentration is, the higher absorbance value will be. According to the present invention, FeSO4 standard curve results are shown in FIG. 10, the standard curve has a good linear relationship, wherein a correlation coefficient thereof is 0.998. Precision and accuracy of the FeSO4 curve satisfy testing requirements, and are applicable for subsequent calculation.
(3) Bioactive Polypeptide DELQ Antioxidant Capacity Detection with FRAP Method
Adding 180 μL FRAP working fluid into the 96-hole cell culturing plate, adding 5 μL ddH2O into a blank control hole, adding 5 μL testing sample into a sample hole, adding 5 μL phytic acid into a positive control, gently mixing, incubating at 37° C. for 3-5 min, and detecting absorbance values at 593 nm with the microplate reader. […]

Q: For `CC(C)C[C@H](NC(=O)[C@H](CCC(=O)O)NC(=O)[C@@H](N)CC(=O)O)C(=O)N[C@@H](CCC(N)=O)C(=O)O` [DELQ, Asp-Glu-Leu-Gln] (H-DELQ-OH; N-terminus and C-terminus assumed), which “stability under simulated in vitro gastrointestinal digestion” value [1] is on record?
A: stable

Q: For `Cc1c(C)c2c(c(C)c1O)CCC(C)(C(=O)O)O2` (stereo not drawn) [Trolox], which “[DPPH.] radical removing rate” value ([2]; positive control 1, 2.5 mg/mL Trolox) is on record?
A: 99.96%

Q: And the “[DPPH.] radical removing rate” value ([2]; positive control 2, 0.025 g/mL Trolox)?
A: 71.08 ± 0.03%

Q: For `O=P(O)(O)O[C@H]1[C@H](OP(=O)(O)O)[C@@H](OP(=O)(O)O)[C@H](OP(=O)(O)O)[C@@H](OP(=O)(O)O)[C@H]1OP(=O)(O)O` [phytic acid], which FRAP [3] is on record?
A: 0.0089 mmol/g

Q: What about the “corresponding FeSO4 concentration” value ([3]; 593 nm) of the same molecule?
A: 0.0356 ± 0.0055 mmol/L

Q: What about the “[DPPH.] radical removing rate” value ([2]; negative control, concentration not given) of the same molecule?
A: 58.49 ± 0.08%
